Assay results published in US11753407B2, “Compounds for treating spinal muscular atrophy” (PTC Therapeutics, Inc., priority 2012, dated 2023).

Assays:
[1] = system: SMN2 minigene mRNA (SMN2-A minigene) in HEK293H cells; test: SMN2 minigene mRNA splicing RT-qPCR assay in cultured cells; type: cell-based, human; conditions: Homo sapiens, HEK293-H; concentration increasing full length SMN2 mRNA 1.5-fold relative to vehicle-treated cells; HEK293H cells with SMN2-A minigene, 24 hours, 7-point concentration data; read-out: EC1.5x for production of full length SMN2 mRNA
Summary of the method: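 HEK293H cells stably carrying the SMN2-A minigene were treated for 24 h at 37 °C with a 7-point, 3.16-fold dilution series of compound. Multiplex RT-qPCR measured exon 7-containing minigene FL mRNA against GAPDH, expressed relative to vehicle by modified ΔΔCt; the EC1.5× is the concentration giving a 1.5-fold increase.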

[2] = system: Smn protein in SMA patient fibroblast cells (GM03813); test: Smn protein assay in cultured cells (SMN HTRF); type: cell-based, human; conditions: SMA patient fibroblast cells, 48 hours; for EC1.5x for Smn protein expression: 7-point concentration curve, SMN HTRF, concentration producing 1.5 times Smn protein vs DMSO vehicle control; for maximum fold (Fold) increase of Smn protein: 7-point concentration data, fold relative to vehicle control
Summary of the method: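 SMA patient fibroblasts (5,000 cells/well, DMEM-10% FBS) were treated for 48 h at 37 °C with a 7-point, 3.16-fold dilution series in triplicate. RIPA lysates were probed by HTRF (anti-SMN d2/kryptate, overnight, room temperature), reading 665/620 nm. EC1.5× is the concentration giving 1.5-fold Smn over DMSO vehicle.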

| melting point [°C] | Structure (SMILES) | EC (1.5-fold increase) [1] [µM] | EC1.5x for Smn protein expression [2] | maximum fold (Fold) increase of Smn protein [2] |
| --- | --- | --- | --- | --- |
| 282 to 284 | Cc1cn2cc(-c3cc(=O)n4cc(C5CCNCC5)ccc4n3)cc(C)c2n1 [Compound 607, 2-(2,8-dimethylimidazo[1,2-a]pyridin-6-yl)-7-(piperidin-4-yl)-4H-pyrido[1,2-a]pyrimidin-4-one] | < 0.1 | **** (an EC1.5x≤0.3 μM is indicated by four stars (****)) | ***** (a fold increase >1.65 is indicated by five stars (*****)) |
| 221 to 232 | Cc1cn2nc(-c3cc(=O)n4cc(N5CCC(NCCO)CC5)cc(C)c4n3)cc2c(C)n1 [Compound 609, 2-(4,6-dimethylpyrazolo[1,5-a]pyrazin-2-yl)-7-{4-[(2-hydroxyethyl)amino]piperidin-1-yl}-9-methyl-4H-pyrido[1,2-a]pyrimidin-4-one] | < 0.1 | **** (an EC1.5x≤0.3 μM is indicated by four stars (****)) | ***** (a fold increase >1.65 is indicated by five stars (*****)) |
| 218 to 227 | CNC1CCN(c2cc(C)c3nc(-c4cc5c(C)nc(C)cn5n4)cc(=O)n3c2)CC1 [Compound 610, 2-(4,6-dimethylpyrazolo[1,5-a]pyrazin-2-yl)-9-methyl-7-[4-(methylamino)piperidin-1-yl]-4H-pyrido[1,2-a]pyrimidin-4-one] | < 0.1 | **** (an EC1.5x≤0.3 μM is indicated by four stars (****)) | ***** (a fold increase >1.65 is indicated by five stars (*****)) |
| 215 to 225 | Cc1cn2nc(-c3cc(=O)n4cc(N5CCC(NC(C)C)CC5)cc(C)c4n3)cc2c(C)n1 [Compound 611, 2-(4,6-dimethylpyrazolo[1,5-a]pyrazin-2-yl)-9-methyl-7-[4-(propan-2-ylamino)piperidin-1-yl]-4H-pyrido[1,2-a]pyrimidin-4-one] | 0.3 to 1 |  | *** (a fold increase between >1.35 and ≤1.5 is indicated by three stars (***)) |
| 202 to 204 | CCN1CCC(c2ccc3nc(-c4ccc5nn(C)cc5c4)cc(=O)n3c2)CC1 [Compound 612, 7-(1-ethylpiperidin-4-yl)-2-(2-methyl-2H-indazol-5-yl)-4H-pyrido[1,2-a]pyrimidin-4-one] | < 0.1 | **** (an EC1.5x≤0.3 μM is indicated by four stars (****)) | ***** (a fold increase >1.65 is indicated by five stars (*****)) |
| 170 to 172 | Cn1cc2cc(-c3cc(=O)n4cc(C5CCN(CCO)CC5)ccc4n3)ccc2n1 [Compound 613, 7-[1-(2-hydroxyethyl)piperidin-4-yl]-2-(2-methyl-2H-indazol-5-yl)-4H-pyrido[1,2-a]pyrimidin-4-one] | < 0.1 | **** (an EC1.5x≤0.3 μM is indicated by four stars (****)) | ***** (a fold increase >1.65 is indicated by five stars (*****)) |
| 200 to 202 | Cc1cn2cc(-c3cc(=O)n4cc(C5CCN(C)CC5)ccc4n3)cc(C)c2n1 [Compound 614, 2-(2,8-dimethylimidazo[1,2-a]pyridin-6-yl)-7-(1-methylpiperidin-4-yl)-4H-pyrido[1,2-a]pyrimidin-4-one] | < 0.1 | **** (an EC1.5x≤0.3 μM is indicated by four stars (****)) | ***** (a fold increase >1.65 is indicated by five stars (*****)) |
| 202 to 204 | CCN1CCC(c2ccc3nc(-c4cc(C)c5nc(C)cn5c4)cc(=O)n3c2)CC1 [Compound 615, 2-(2,8-dimethylimidazo[1,2-a]pyridin-6-yl)-7-(1-ethylpiperidin-4-yl)-4H-pyrido[1,2-a]pyrimidin-4-one] | < 0.1 | **** (an EC1.5x≤0.3 μM is indicated by four stars (****)) | **** (a fold increase between >1.5 and ≤1.65 is indicated by four stars (****)) |
| 242 to 244 | Cc1cn2cc(-c3cc(=O)n4cc(C5CCN(C(C)C)CC5)ccc4n3)cc(C)c2n1 [Compound 616, 2-(2,8-dimethylimidazo[1,2-a]pyridin-6-yl)-7-[1-(propan-2-yl)piperidin-4-yl]-4H-pyrido[1,2-a]pyrimidin-4-one] | < 0.1 | **** (an EC1.5x≤0.3 μM is indicated by four stars (****)) | ***** (a fold increase >1.65 is indicated by five stars (*****)) |
| 243 to 245 | CCCN1CCN(c2ccc3nc(-c4cc5c(CC)nc(C)cn5n4)cc(=O)n3c2)CC1 [Compound 618, 2-(4-ethyl-6-methylpyrazolo[1,5-a]pyrazin-2-yl)-7-(4-propylpiperazin-1-yl)-4H-pyrido[1,2-a]pyrimidin-4-one] | < 0.1 | **** (an EC1.5x≤0.3 μM is indicated by four stars (****)) | ***** (a fold increase >1.65 is indicated by five stars (*****)) |
| 255 to 258 | CCc1nc(C)cn2nc(-c3cc(=O)n4cc(N5CCN(C(C)C)CC5)ccc4n3)cc12 [Compound 619, 2-(4-ethyl-6-methylpyrazolo[1,5-a]pyrazin-2-yl)-7-[4-(propan-2-yl)piperazin-1-yl]-4H-pyrido[1,2-a]pyrimidin-4-one] | 0.1 to 0.3 | *** (an EC1.5× between >0.3 μM and ≤1 μM is indicated by three stars (***)) | ***** (a fold increase >1.65 is indicated by five stars (*****)) |
| 258 to 260 | CCc1nc(C)cn2nc(-c3cc(=O)n4cc(N5CCN(C6CC6)CC5)ccc4n3)cc12 [Compound 620, 7-(4-cyclopropylpiperazin-1-yl)-2-(4-ethyl-6-methylpyrazolo[1,5-a]pyrazin-2-yl)-4H-pyrido[1,2-a]pyrimidin-4-one] | 0.3 to 1 | ** (an EC1.5× between >1 μM and ≤3 μM is indicated by two stars (**)) | *** (a fold increase between >1.35 and ≤1.5 is indicated by three stars (***)) |
| 275 to 278 | CCc1nc(C)cn2nc(-c3cc(=O)n4cc(N5CCN(C6CCC6)CC5)ccc4n3)cc12 [Compound 621, 7-(4-cyclobutylpiperazin-1-yl)-2-(4-ethyl-6-methylpyrazolo[1,5-a]pyrazin-2-yl)-4H-pyrido[1,2-a]pyrimidin-4-one] | 0.3 to 1 | **** (an EC1.5x≤0.3 μM is indicated by four stars (****)) | ***** (a fold increase >1.65 is indicated by five stars (*****)) |
| 205 to 208 | CCc1nc(C)cn2nc(-c3cc(=O)n4cc(N5CCN(C6COC6)CC5)ccc4n3)cc12 [Compound 622, 2-(4-ethyl-6-methylpyrazolo[1,5-a]pyrazin-2-yl)-7-[4-(oxetan-3-yl)piperazin-1-yl]-4H-pyrido[1,2-a]pyrimidin-4-one] | 1 to 3 | ** (an EC1.5× between >1 μM and ≤3 μM is indicated by two stars (**)) | **** (a fold increase between >1.5 and ≤1.65 is indicated by four stars (****)) |
| 176 to 178 | CCN1CCC2CN(c3ccc4nc(-c5cc6c(C)nc(C)cn6n5)cc(=O)n4c3)CCC21 (stereo not shown) [Compound 623, 2-(4,6-dimethylpyrazolo[1,5-a]pyrazin-2-yl)-7-(1-ethyloctahydro-5H-pyrrolo[3,2-c]pyridin-5-yl)-4H-pyrido[1,2-a]pyrimidin-4-one] | < 0.1 | **** (an EC1.5x≤0.3 μM is indicated by four stars (****)) | ***** (a fold increase >1.65 is indicated by five stars (*****)) |
| 184 to 187 | Cc1cn2nc(-c3cc(=O)n4cc(N5CCC6C(CCN6CCO)C5)ccc4n3)cc2c(C)n1 (stereo not shown) [Compound 624, 2-(4,6-dimethylpyrazolo[1,5-a]pyrazin-2-yl)-7-[1-(2-hydroxyethyl)octahydro-5H-pyrrolo[3,2-c]pyridin-5-yl]-4H-pyrido[1,2-a]pyrimidin-4-one] | < 0.1 | **** (an EC1.5x≤0.3 μM is indicated by four stars (****)) | ***** (a fold increase >1.65 is indicated by five stars (*****)) |
| 229 to 231 | Cc1cn2cc(-c3cc(=O)n4cc(C5CCN(C(C)C)CC5)ncc4n3)ccc2n1 [Compound 627, 2-(2-methylimidazo[1,2-a]pyridin-6-yl)-7-[1-(propan-2-yl)piperidin-4-yl]-4H-pyrazino[1,2-a]pyrimidin-4-one] | 0.1 to 0.3 | ** (an EC1.5× between >1 μM and ≤3 μM is indicated by two stars (**)) | **** (a fold increase between >1.5 and ≤1.65 is indicated by four stars (****)) |
